# Molecular target: Hsp82 (Saccharomyces cerevisiae, UniProt P02829)
# Experiment: Hsp82 ATPase activity, pyruvate kinase/lactate dehydrogenase enzymatic coupling method (NADH absorbance at 340 nm)
# Type: biochemical
# Conditions: 1 μM Hsp82, 250 μM ATP, 37° C., PK/LDH coupled, initial rate
# Description: The formation of ADP due to the ATPase activity of Hsp82 was used to develop another method for evaluating the enzymatic activity of this enzyme by application of an enzymatic coupling system involving pyruvate kinase (PK) and lactate dehydrogenase (LDH). In this kinetic-type spectrophotometric method, PK catalyses the formation of ATP and of pyruvate from phosphoenol pyruvate (PEP) and the ADP produced by Hsp82. The pyruvate formed, which is a substrate for LDH, is subsequently converted to lactate in the presence of NADH. In this case, the decrease in NADH concentration, measured through the decrease in absorbance at the wavelength of 340 nm, is proportional to the concentration of ADP produced by Hsp82.
# The products tested are incubated in a reaction volume of 100 μl of buffer composed of 100 mM Hepes-NaOH (pH 7.5), 5 mM MgCl2, 1 mM DTT, 150 mM KCl, 0.3 mM NADH, 2.5 mM PEP and 250 μM ATP. This mixture is preincubated at 37° C. for 30 minutes before the addition of 3.77 units of LDH and 3.77 units of PK. The reaction is initiated by addition of the product to be evaluated, in varying concentrations, and of Hsp82, at the concentration of 1 μM. The enzymatic activity of Hsp82 is then measured continuously, in a microplate reader, at 37° C., at the wavelength of 340 nm. The initial rate of the reaction is obtained by measuring the slope of the tangent to the origin of the curve recorded. The enzymatic activity is expressed in μM of ADP formed per minute. The effect of the various products tested is expressed as capacity for inhibiting the ATPase activity according to the codification below: […]
# Hsp82, sequence (P02829 whole entry): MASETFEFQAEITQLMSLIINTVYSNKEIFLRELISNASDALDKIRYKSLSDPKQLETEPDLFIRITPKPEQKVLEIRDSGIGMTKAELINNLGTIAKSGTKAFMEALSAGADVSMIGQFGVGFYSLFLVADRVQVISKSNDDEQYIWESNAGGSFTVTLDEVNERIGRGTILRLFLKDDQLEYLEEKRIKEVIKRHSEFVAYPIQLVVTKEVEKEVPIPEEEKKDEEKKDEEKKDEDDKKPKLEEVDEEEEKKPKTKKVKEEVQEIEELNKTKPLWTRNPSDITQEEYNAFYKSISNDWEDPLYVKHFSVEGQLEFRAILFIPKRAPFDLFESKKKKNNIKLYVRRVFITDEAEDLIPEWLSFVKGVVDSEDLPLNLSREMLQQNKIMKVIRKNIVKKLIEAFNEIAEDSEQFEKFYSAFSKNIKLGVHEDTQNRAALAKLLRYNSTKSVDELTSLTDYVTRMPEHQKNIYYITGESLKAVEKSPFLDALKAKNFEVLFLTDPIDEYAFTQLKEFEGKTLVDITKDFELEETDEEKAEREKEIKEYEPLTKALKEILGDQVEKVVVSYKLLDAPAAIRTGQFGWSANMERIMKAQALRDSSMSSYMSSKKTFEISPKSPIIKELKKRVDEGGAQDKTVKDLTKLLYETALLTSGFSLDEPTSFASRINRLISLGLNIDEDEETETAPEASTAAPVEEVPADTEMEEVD
row,IC50 [nM],Compound
1,< 1000,"O=C(NC1c2cccc(-c3nc4ccc(F)cc4[nH]3)c2-n2cccc21)c1ccnc2[nH]ccc12 (stereo not shown) [Example 1, 1H-pyrrolo[2,3-b]pyridine-4-carboxylic acid [5-(6-fluoro-1H-benzimidazol-2-yl)-9H-pyrrolo[1,2-a]indol-9-yl]amide]"
2,1000 to 10000,"O=C(NC1c2cccc(-c3cnc4ccccc4c3)c2-n2cccc21)c1ccnc2[nH]ccc12 (stereo not shown) [Example 2, 1H-pyrrolo[2,3-b]pyridine-4-carboxylic acid (5-quinolin-3-yl-9H-pyrrolo[1,2-a]indol-9-yl)amide]"
3,< 1000,"O=C(NC1c2cccc(-c3nc4ccncc4[nH]3)c2-n2cccc21)c1ccnc2[nH]ccc12 (stereo not shown) [Example 3, 1H-pyrrolo[2,3-b]pyridine-4-carboxylic acid [5-(3H-imidazo[4,5-c]pyridin-2-yl)-9H-pyrrolo[1,2-a]indol-9-yl]amide]"
4,1000 to 10000,"O=C(NC1c2cccc(-c3nc4ccncc4[nH]3)c2-n2cccc21)c1cc(Cl)nc2[nH]ccc12 (stereo not shown) [Example 4, 6-chloro-1H-pyrrolo[2,3-b]pyridine-4-carboxylic acid [5-(3H-imidazo[4,5-c]pyridin-2-yl)-9H-pyrrolo[1,2-a]indol-9-yl]amide]"
